This note sets out measurements from patent US7163952B2, “Azole compound and medicinal use thereof” (Japan Tobacco Inc., priority 2001, dated 2007).

Each structure is given as a SMILES string.

As usually defined, the melting point is the temperature of the solid-liquid transition.

On to `CN(c1ccc(C(=O)O)cc1)c1nc(-c2ccc(OCc3ccc(C4CCCCC4)cc3)cc2)cs1` [Example 22, 4-(N-(4-(4-(4-cyclohexylbenzyloxy)phenyl)-2-thiazolyl)-N-methylamino)benzoic acid], for which the melting point is 250 °C (dec.). For `CCN(c1ccc(C(=O)O)cc1)c1nc(-c2ccc(OCc3ccc(C4CCCCC4)cc3)cc2)cs1` [Example 23, 4-(N-(4-(4-(4-cyclohexylbenzyloxy)phenyl)-2-thiazolyl)-N-ethylamino)benzoic acid], the melting point was in the range of 239 to 247 °C. The same measure for `CC(C)N(c1ccc(C(=O)O)cc1)c1nc(-c2ccc(OCc3ccc(C4CCCCC4)cc3)cc2)cs1` [Example 24, 4-(N-(4-(4-(4-cyclohexylbenzyloxy)phenyl)-2-thiazolyl)-N-isopropylamino)benzoic acid]: 238 to 240 °C; for `O=C(O)c1ccc(N(CC2CCCCC2)c2nc(-c3ccc(OCc4ccc(C5CCCCC5)cc4)cc3)cs2)cc1` [Example 25, 4-(N-(4-(4-(4-cyclohexylbenzyloxy)phenyl)-2-thiazolyl)-N-cyclohexylmethylamino)benzoic acid]: 230 °C (dec.); for `O=C(O)CCCN(c1ccc(C(=O)O)cc1)c1nc(-c2ccc(OCc3ccc(C4CCCCC4)cc3)cc2)cs1` [Example 26, 4-(N-(3-carboxypropyl)-N-(4-(4-(4-cyclohexylbenzyloxy)phenyl)-2-thiazolyl)amino)benzoic acid]: 230 °C (dec.).

Turning to `O=C(O)c1cccc(Nc2nc(-c3ccc(NC(=O)c4ccc(C5CCCCC5)cc4)cc3)cs2)c1` [Example 27, 3-(4-(4-(4-cyclohexylbenzoylamino)phenyl)-2-thiazolylamino)benzoic acid], the melting point was 230 °C (dec.).

Take `CC(C)N(c1cccc(C(=O)O)c1)c1nc(-c2ccc(NC(=O)c3ccc(C4CCCCC4)cc3)cc2)cs1` [Example 28, 3-(N-(4-(4-(4-cyclohexylbenzoylamino)phenyl)-2-thiazolyl)-N-isopropylamino)benzoic acid]: the melting point was 230 °C (dec.). Turning to `CC(C)N(c1ccc(C(=O)[O-])cc1)c1nc(-c2ccc(OCc3ccc(C4CCCCC4)cc3)cc2)cs1.[Na+]` [Example 34, sodium 4-(N-(4-(4-(4-cyclohexylbenzyloxy)phenyl)-2-thiazolyl)-N-isopropylamino)benzoate], the melting point is 230 °C (dec.). The same measure for `CC(C)N(c1ccc(C(=O)[O-])cc1)c1nc(-c2ccc(NC(=O)c3ccc(N4CCN(C)CC4)cc3)cc2)cs1.[Na+]` [Example 37, sodium 4-(N-isopropyl-N-(4-(4-(4-(4-methyl-1-piperazinyl)benzoylamino)phenyl)-2-thiazolyl)amino)benzoate]: 230 °C (dec.). The figure for `CC(C)N(c1ccc(C(=O)O)c(Cl)c1)c1nc(-c2ccc(NC(=O)c3ccc(C4CCCCC4)cc3)cc2)cs1` [Example 38, 2-chloro-4-(N-(4-(4-(4-cyclohexylbenzoylamino)phenyl)-2-thiazolyl)-N-isopropylamino)benzoic acid] is 220 °C (dec.); for `CC(C)N(c1ccc(C(=O)O)c(Cl)c1)c1nc(-c2ccc(NC(=O)c3ccc(N4CCN(C)CC4)cc3)cc2)cs1` [Example 41, 2-chloro-4-(N-isopropyl-N-(4-(4-(4-(4-methyl-1-piperazinyl)benzoylamino)phenyl)-2-thiazolyl)amino)benzoic acid] it is 220 °C (dec.); for `CC(C)(c1ccc(C(=O)O)cc1)c1nc(-c2ccc(OCc3ccc(C4CCCCC4)cc3)cc2)cs1` [Example 42, 4-(1-(4-(4-(4-cyclohexylbenzyloxy)phenyl)-2-thiazolyl)-1-methylethyl)benzoic acid] it is 219 to 221 °C. Molecule `CC(C)(c1ccc(C(=O)O)cc1)c1nc(-c2ccc(NC(=O)c3ccc(C4CCCCC4)cc3)cc2)cs1` [Example 43, 4-(1-(4-(4-(4-cyclohexylbenzoylamino)phenyl)-2-thiazolyl)-1-methylethyl)benzoic acid] showed a melting point of 262 to 264 °C. As to `CC(C)(c1ccc(C(=O)O)cc1)c1nc(-c2ccc(NC(=O)c3ccc(N4CCOCC4)cc3)cc2)cs1` [Example 44, 4-(1-methyl-1-(4-(4-(4-morpholinobenzoylamino)phenyl)-2-thiazolyl)ethyl)benzoic acid], the melting point is 290 °C (dec.). The molecule `CC(C)(c1ccc(C(=O)O)cc1)c1nc(-c2ccc(NC(=O)c3ccc(N4CCCCC4)cc3)cc2)cs1` [Example 45, 4-(1-methyl-1-(4-(4-(4-piperidinobenzoylamino)phenyl)-2-thiazolyl)ethyl)benzoic acid] had a melting point of 268 to 271 °C. With `CC(C)N(c1ccc(C(=O)O)cc1)c1nc(-c2ccc(NC(=O)CCCC3CCCCC3)cc2)cs1` [Example 46, 4-(N-(4-(4-(4-cyclohexylbutyrylamino)phenyl)-2-thiazolyl)-N-isopropylamino)benzoic acid], the melting point was 230 °C (dec.). In the case of `CC(C)(C)c1ccc(COc2ccc(-c3csc(Cc4ccc(C(=O)O)cc4)n3)cc2)cc1` [Example 47, 4-(4-(4-(4-tert-butylbenzyloxy)phenyl)-2-thiazolylmethyl)benzoic acid], the melting point lay within 223 to 228 °C. `O=C(O)c1ccc(Cc2nc(-c3ccc(OCc4ccc(C5CCCCC5)cc4)cc3)cs2)cc1` [Example 48, 4-(4-(4-(4-cyclohexylbenzyloxy)phenyl)-2-thiazolylmethyl)benzoic acid] returned a melting point of 235 to 238 °C.

In the case of `O=C(O)c1ccc(COc2ccc(-c3csc(Cc4ccc(C(=O)O)cc4)n3)cc2)cc1` [Example 49, 4-(4-(4-(4-carboxybenzyloxy)phenyl)-2-thiazolylmethyl)benzoic acid], the melting point was 270 °C (dec.). Turning to `CC(C)N(c1ccc(OCC(=O)O)cc1)c1nc(-c2ccc(NC(=O)C3CCCCC3)cc2)cs1` [Example 50, (4-(N-(4-(4-(cyclohexanecarbonylamino)phenyl)-2-thiazolyl)-N-isopropylamino)phenoxy)acetic acid], the melting point is 225 °C (dec.). As to `CC(C)N(c1ccc(OCC(=O)O)cc1)c1nc(-c2ccc(NC(=O)c3ccc(C4CCCCC4)cc3)cc2)cs1` [Example 51, (4-(N-(4-(4-(4-cyclohexylbenzoylamino)phenyl)-2-thiazolyl)-N-isopropylamino)phenoxy)acetic acid], the melting point was 240 °C (dec.). `CC(C)N(c1nc(-c2ccc(NC(=O)c3ccc(C4CCCCC4)cc3)cc2)cs1)c1c(F)c(F)c(C(=O)O)c(F)c1F` [Example 52, 4-(N-(4-(4-(4-cyclohexylbenzoylamino)phenyl)-2-thiazolyl)-N-isopropylamino)-2,3,5,6-tetrafluorobenzoic acid] gave a melting point of 153 to 157 °C.

Regarding `CC(C)N(c1ccc(OCC(=O)O)cc1)c1nc(-c2ccc(NC(=O)c3ccc(N4CCCCC4)cc3)cc2)cs1` [Example 53, (4-(N-isopropyl-N-(4-(4-(4-piperidinobenzoylamino)phenyl)-2-thiazolyl)amino)phenoxy)acetic acid], the melting point is 220 °C (dec.). The figure for `CC(C)N(c1ccc(OCC(=O)O)cc1)c1nc(-c2ccc(NC(=O)c3ccc(N4CCOCC4)cc3)cc2)cs1` [Example 54, (4-(N-isopropyl-N-(4-(4-(4-morpholinobenzoylamino)phenyl)-2-thiazolyl)amino)phenoxy)acetic acid] is 250 °C (dec.).
